Assay results from ChEMBL document CHEMBL1201862, “PubChem BioAssay data set” (2004).
Each block holds one compound with its values, some of them ahead of it. Active and inactive are the calls of the source.

Tests used:
Hexokinase HKDC1 = Hexokinase HKDC1 (Homo sapiens, UniProt Q2TB90); assay: HKDC1 hexokinase activators, dose response, biochemical, W721R variant (AID 504730); format: functional
Hexokinase-1 = Hexokinase-1 (Homo sapiens, UniProt P19367); assay: hexokinase 1 activators, dose response, selectivity assay for HKDC1 activator project, biochemical (AID 504762); format: functional
[1] = target: T1, E3 ubiquitin-protein ligase XIAP (Homo sapiens, UniProt P98170); assay: Counter Screen using XIAP-Bir3 of the Chemical Antagonists of IAP-family anti-apoptotic proteins confirmation assay. [Related pubchem assays (depositor defined):AID1018, AID1449, AID1513, AID1638, AID1749, AID1750, AID488957, AID488963]
[2] = target: T1, E3 ubiquitin-protein ligase XIAP; assay: Chemical Antagonists of IAP-family anti-apoptotic proteins confirmation. [Related pubchem assays (depositor defined):AID1018, AID1513, AID1514, AID1638, AID1749, AID1750, AID488957, AID488963]
NS3 = NS3 (Hepatitis C virus, UniProt A3EZJ3); assay: PubChem AID 2173; set-up: species or system Hepacivirus hominis
[3] = target: Induced myeloid leukemia cell differentiation protein Mcl-1 (Homo sapiens, UniProt Q07820); format: functional
[4] = target: Intestinal-type alkaline phosphatase (Homo sapiens, UniProt P09923); assay: activation of human intestinal alkaline phosphatase – biochemical, dose response (AID 488873); format: functional
[5] = target: Intestinal-type alkaline phosphatase (Mus musculus, UniProt P24822); assay: mouse intestinal alkaline phosphatase activators, dose response, biochemical, luminescence, uHTS hits (AID 488783); format: functional
[6] = target: T2, Alkaline phosphatase, tissue-nonspecific isozyme (Homo sapiens, UniProt P05186); assay: TNAP enzyme activators, dose response, selectivity assay for mouse IAP activator project, biochemical, TNAP isozyme, mouse IAP uHTS hits (AID 488880); format: functional
T2 sequence (P05186 whole entry): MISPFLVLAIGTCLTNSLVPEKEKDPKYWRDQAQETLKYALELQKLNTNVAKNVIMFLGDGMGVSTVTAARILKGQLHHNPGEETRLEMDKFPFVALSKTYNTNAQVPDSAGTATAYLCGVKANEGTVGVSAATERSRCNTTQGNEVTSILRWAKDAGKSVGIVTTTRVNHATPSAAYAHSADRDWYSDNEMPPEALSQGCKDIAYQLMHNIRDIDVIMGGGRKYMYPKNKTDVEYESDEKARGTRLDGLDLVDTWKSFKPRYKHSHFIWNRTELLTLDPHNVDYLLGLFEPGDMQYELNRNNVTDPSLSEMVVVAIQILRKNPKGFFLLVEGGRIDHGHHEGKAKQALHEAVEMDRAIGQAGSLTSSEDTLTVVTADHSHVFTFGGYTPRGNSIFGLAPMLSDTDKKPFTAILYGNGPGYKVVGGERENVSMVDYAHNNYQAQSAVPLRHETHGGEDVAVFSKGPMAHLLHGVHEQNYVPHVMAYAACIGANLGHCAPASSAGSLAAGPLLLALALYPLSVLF

[7] = target: 1-phosphatidylinositol 4,5-bisphosphate phosphodiesterase gamma-1 (Homo sapiens, UniProt P19174); assay: Counterscreen for inhibitors of phospholipase C isozymes (PLC-B3): Fluorescence-based biochemical high throughput dose response assay to identify inhibitors of phospholipase C isozymes (PLC-gamma1).
[8] = target: 1-phosphatidylinositol 4,5-bisphosphate phosphodiesterase beta-3 (Homo sapiens, UniProt Q01970); assay: Fluorescence-based biochemical high throughput dose response assay to identify inhibitors of phospholipase C isozymes (PLC-B3).
Cannabinoid receptor 2 [9] = target: T3, Cannabinoid receptor 2 (Homo sapiens, UniProt P34972); assay: SAR analysis of antagonists of the Cannabinoid Receptor 2 using an Image-Based Assay - Set 2. [Related pubchem assays (depositor defined):AID1961, AID1965]; format: functional
Cannabinoid receptor 2 [10] = target: T3, Cannabinoid receptor 2; assay: SAR analysis of agonists of the Cannabinoid Receptor 2 using an Image-Based Assay - Set 2. [Related pubchem assays (depositor defined):AID1961, AID1965]; format: functional
[11] = target: T4, G-protein coupled receptor 55 (Homo sapiens, UniProt Q9Y2T6); assay: SAR analysis of selective Agonists of GPR55 using an Image-Based Assay. [Related pubchem assays (depositor defined):AID1961, AID1965]; format: functional
Cannabinoid receptor 1 [12] = target: T5, Cannabinoid receptor 1 (Homo sapiens, UniProt P21554); assay: SAR analysis of antagonists of the Cannabinoid Receptor 1 using an Image-Based Assay. [Related pubchem assays (depositor defined):AID1961, AID1965]; format: functional
Ion channel NompC = Ion channel NompC (Danio rerio, UniProt Q7T1G6); assay: Dose response cell-based high-throughput screening assay for agonists of the transient receptor potential channel N1 (TRPN1). [Related pubchem assays (depositor defined):AID1424, AID1448]; format: functional
Mucolipin-3 = Mucolipin-3 (Homo sapiens, UniProt Q8TDD5); assay: Fluorescence counterscreen assay for […] agonists: dose response cell-based high-throughput screening assay to identify agonists of the transient receptor potential channel ML3 (TRPML3). [Related pubchem assays: 1424, 1448 ]; format: functional
[13] = target: T6, High affinity choline transporter 1 (Homo sapiens, UniProt Q9GZV3); assay: CHT inhibitors, dose response, cell-based, 5-point CRC, membrane potential dye (AID 504840); format: functional
T6 sequence (Q9GZV3 whole entry): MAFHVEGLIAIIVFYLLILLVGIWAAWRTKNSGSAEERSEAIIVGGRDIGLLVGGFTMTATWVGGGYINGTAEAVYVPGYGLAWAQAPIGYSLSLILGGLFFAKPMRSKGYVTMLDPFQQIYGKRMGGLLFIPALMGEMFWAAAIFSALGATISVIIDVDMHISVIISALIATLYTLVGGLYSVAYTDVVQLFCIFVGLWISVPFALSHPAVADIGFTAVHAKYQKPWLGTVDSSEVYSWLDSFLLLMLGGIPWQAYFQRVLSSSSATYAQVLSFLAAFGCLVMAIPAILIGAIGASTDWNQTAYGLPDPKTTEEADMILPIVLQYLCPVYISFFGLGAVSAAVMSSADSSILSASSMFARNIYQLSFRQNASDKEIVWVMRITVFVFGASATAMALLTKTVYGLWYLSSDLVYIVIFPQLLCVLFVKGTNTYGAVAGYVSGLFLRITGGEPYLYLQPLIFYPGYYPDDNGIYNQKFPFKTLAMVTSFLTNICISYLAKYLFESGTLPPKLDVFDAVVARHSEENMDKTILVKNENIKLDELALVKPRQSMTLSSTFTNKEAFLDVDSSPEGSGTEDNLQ

[14] = target: Sphingosine 1-phosphate receptor 1 (Homo sapiens, UniProt P21453); assay: Fluorescence-based counterscreen assay for S1P4 agonists: Cell-based dose response high throughput screening assay to identify agonists of the Sphingosine 1-Phosphate Receptor 1 (S1P1). [Related pubchem assays (depositor defined):AID1509, AID1523, AID1801, AID463107, AID463118, AID463119, AID463122, AID463123, AID463129, AID463225, AID504400, AID504460]; format: functional
[15] = target: Sphingosine 1-phosphate receptor 4 (Homo sapiens, UniProt O95977); assay: Fluorescence dose response cell-based high throughput screening assay for agonists of the Sphingosine 1-Phosphate Receptor 4 (S1P4). [Related pubchem assays: 1509 (Primary screen.), 1523 (Confirmation screen in triplicates.)]; format: functional
[16] = target: DNA damage-inducible transcript 3 protein (Mus musculus, UniProt P35639); format: functional, Cricetulus griseus
Coagulation factor XII = target: T7, Coagulation factor XII (Homo sapiens, UniProt P00748); assay: Factor XIIa Dose Response Confirmation from Single Well HTS. [Related pubchem assays (depositor defined):AID701]; format: functional
T7 sequence (P00748 whole entry): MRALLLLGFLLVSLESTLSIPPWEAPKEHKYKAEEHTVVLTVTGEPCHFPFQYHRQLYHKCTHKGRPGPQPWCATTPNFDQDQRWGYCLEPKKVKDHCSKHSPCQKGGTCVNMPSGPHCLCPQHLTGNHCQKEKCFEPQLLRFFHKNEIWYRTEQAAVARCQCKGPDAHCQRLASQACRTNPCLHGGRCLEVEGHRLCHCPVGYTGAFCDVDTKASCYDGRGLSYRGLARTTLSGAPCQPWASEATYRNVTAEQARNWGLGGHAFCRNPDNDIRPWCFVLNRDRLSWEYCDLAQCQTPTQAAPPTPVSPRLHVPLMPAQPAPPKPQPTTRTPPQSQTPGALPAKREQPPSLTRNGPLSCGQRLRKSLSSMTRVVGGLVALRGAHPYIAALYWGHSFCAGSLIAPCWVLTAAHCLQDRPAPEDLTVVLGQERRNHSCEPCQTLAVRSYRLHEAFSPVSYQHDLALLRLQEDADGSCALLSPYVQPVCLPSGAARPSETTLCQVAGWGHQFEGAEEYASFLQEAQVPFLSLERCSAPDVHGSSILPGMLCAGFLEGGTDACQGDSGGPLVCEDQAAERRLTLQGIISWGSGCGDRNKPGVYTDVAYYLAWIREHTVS

[17] = target: T4, G-protein coupled receptor 55; assay: SAR analysis of selective Agonists of GPR55 using an Image-Based Assay - Set 2. [Related pubchem assays (depositor defined):AID1961, AID1965]; format: functional
[18] = target: T8, G-protein coupled receptor 35 (Homo sapiens, UniProt Q9HC97); assay: SAR analysis of Agonists of the GPR35 Receptor using an Image-Based Assay - Set 3. [Related pubchem assays (depositor defined):AID1961, AID1965]; format: functional
Cannabinoid receptor 1 [19] = target: T5, Cannabinoid receptor 1; assay: SAR analysis of antagonists of the Cannabinoid Receptor 1 using an Image-Based Assay - Set 3. [Related pubchem assays (depositor defined):AID1961, AID1965]; format: functional
Cannabinoid receptor 1 [20] = target: T5, Cannabinoid receptor 1; assay: SAR analysis of agonists of the Cannabinoid Receptor 1 using an Image-Based Assay - Set 3. [Related pubchem assays (depositor defined):AID1961, AID1965]; format: functional
[21] = target: T8, G-protein coupled receptor 35; assay: SAR analysis of Antagonists of the GPR35 Receptor using an Image-Based Assay - Set 4. [Related pubchem assays (depositor defined):[…]]; format: functional

T5 sequence (P21554 whole entry): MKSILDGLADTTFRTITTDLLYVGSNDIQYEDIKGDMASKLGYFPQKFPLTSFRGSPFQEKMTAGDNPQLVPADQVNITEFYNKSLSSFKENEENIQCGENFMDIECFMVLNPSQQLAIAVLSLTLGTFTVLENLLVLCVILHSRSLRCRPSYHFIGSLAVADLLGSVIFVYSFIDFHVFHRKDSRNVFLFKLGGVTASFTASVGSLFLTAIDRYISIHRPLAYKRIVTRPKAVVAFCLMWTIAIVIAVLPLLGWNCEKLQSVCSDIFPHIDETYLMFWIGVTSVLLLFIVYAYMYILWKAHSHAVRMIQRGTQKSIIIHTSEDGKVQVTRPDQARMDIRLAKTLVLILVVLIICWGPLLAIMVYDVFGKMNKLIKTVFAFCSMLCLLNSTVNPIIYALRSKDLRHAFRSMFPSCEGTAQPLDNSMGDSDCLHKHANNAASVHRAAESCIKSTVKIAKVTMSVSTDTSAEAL
T3 sequence (P34972 whole entry): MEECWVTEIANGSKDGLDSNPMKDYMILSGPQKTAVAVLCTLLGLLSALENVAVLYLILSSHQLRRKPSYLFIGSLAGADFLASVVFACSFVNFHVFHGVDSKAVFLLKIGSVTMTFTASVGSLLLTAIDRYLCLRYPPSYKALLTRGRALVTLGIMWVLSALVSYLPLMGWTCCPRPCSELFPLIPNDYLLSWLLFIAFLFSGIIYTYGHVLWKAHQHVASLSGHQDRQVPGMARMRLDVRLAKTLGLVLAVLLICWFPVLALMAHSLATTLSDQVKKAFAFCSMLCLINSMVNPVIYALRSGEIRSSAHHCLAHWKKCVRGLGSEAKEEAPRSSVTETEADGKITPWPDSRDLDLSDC
T8 sequence (Q9HC97 whole entry): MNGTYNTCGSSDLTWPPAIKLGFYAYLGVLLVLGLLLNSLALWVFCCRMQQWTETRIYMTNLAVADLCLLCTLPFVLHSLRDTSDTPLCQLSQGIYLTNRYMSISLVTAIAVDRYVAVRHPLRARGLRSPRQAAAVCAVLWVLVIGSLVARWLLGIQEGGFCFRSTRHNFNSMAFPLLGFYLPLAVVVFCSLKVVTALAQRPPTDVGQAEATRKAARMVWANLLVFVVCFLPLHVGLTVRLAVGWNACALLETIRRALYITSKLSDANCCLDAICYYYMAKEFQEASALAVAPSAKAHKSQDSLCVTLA
T1 sequence (P98170 whole entry): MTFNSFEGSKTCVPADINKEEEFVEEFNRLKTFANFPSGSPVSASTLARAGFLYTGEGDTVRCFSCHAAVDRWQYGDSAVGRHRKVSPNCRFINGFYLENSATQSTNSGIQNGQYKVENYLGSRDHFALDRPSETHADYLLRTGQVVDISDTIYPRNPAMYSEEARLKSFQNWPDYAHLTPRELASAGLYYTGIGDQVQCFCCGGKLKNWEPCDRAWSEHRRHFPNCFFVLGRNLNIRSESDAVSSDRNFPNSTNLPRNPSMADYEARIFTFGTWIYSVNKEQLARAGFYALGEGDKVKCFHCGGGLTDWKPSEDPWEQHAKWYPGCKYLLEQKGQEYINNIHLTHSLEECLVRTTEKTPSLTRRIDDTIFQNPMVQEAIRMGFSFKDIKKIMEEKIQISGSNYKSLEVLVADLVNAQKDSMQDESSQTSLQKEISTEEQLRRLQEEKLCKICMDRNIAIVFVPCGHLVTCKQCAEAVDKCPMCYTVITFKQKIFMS
T4 sequence (Q9Y2T6 whole entry): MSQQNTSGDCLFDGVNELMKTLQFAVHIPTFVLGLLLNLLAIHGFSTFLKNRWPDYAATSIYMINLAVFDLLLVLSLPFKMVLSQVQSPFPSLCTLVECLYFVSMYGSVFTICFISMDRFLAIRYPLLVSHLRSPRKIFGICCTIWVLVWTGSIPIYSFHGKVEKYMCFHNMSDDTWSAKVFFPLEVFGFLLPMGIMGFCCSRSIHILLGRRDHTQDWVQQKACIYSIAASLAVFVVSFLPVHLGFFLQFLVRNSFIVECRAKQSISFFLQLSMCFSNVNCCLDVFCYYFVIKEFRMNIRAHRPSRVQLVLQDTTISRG
Sphingosine 1-phosphate receptor 1, sequence (P21453 whole entry): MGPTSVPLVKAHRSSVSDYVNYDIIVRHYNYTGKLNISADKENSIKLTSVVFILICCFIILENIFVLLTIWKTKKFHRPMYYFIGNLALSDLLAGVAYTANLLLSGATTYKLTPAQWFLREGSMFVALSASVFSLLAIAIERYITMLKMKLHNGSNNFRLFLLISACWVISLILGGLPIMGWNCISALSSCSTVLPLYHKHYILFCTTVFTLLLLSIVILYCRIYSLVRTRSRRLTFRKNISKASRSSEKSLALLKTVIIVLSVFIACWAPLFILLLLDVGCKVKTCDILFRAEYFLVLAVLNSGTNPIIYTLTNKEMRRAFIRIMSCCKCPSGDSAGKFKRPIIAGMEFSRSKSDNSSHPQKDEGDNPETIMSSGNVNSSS
NS3, sequence (A3EZJ3 whole entry): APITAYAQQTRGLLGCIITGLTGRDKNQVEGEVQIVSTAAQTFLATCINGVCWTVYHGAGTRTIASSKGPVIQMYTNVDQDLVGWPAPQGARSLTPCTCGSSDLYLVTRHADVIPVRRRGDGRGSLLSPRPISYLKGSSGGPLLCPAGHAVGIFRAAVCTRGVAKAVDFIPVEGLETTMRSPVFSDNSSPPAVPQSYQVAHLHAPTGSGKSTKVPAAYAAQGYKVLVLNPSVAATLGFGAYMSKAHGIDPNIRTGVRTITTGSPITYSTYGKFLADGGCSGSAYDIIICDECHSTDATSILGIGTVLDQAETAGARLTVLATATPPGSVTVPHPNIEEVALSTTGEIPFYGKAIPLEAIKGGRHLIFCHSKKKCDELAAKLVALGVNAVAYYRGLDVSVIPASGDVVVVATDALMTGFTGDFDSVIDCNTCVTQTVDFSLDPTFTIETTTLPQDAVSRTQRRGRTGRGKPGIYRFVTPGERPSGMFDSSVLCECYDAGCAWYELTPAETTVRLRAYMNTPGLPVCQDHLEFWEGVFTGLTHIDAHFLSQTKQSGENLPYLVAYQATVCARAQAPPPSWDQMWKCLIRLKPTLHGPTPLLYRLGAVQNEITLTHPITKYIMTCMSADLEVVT
Induced myeloid leukemia cell differentiation protein Mcl-1, sequence (Q07820 whole entry): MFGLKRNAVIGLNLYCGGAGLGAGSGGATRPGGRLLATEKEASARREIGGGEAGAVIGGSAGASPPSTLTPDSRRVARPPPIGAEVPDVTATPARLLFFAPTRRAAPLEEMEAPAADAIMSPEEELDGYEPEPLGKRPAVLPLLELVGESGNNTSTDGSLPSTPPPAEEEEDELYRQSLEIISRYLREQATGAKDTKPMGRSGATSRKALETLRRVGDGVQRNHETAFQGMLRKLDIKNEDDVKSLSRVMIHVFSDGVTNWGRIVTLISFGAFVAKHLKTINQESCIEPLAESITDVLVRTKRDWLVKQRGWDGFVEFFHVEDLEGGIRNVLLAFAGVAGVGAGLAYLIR
Intestinal-type alkaline phosphatase (Homo sapiens, UniProt P09923), sequence (P09923 whole entry): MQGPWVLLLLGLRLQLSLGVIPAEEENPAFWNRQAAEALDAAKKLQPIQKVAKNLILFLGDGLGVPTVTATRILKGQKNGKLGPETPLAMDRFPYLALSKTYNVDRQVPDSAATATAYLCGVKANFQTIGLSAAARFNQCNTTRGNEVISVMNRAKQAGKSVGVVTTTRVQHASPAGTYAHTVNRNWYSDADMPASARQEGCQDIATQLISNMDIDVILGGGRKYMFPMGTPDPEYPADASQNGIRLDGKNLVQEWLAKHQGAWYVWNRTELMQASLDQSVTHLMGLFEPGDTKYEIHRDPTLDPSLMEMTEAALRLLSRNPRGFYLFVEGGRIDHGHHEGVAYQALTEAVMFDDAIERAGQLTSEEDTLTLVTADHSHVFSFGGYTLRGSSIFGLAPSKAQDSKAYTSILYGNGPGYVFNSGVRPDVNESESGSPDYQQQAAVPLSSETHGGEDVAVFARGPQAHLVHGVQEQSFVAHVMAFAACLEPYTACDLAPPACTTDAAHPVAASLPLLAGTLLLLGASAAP
DNA damage-inducible transcript 3 protein, sequence (P35639 whole entry): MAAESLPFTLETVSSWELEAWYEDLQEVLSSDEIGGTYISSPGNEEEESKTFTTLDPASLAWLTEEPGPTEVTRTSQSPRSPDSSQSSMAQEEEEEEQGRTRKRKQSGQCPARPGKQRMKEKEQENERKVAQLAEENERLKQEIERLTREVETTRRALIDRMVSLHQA
Mucolipin-3, sequence (Q8TDD5 whole entry): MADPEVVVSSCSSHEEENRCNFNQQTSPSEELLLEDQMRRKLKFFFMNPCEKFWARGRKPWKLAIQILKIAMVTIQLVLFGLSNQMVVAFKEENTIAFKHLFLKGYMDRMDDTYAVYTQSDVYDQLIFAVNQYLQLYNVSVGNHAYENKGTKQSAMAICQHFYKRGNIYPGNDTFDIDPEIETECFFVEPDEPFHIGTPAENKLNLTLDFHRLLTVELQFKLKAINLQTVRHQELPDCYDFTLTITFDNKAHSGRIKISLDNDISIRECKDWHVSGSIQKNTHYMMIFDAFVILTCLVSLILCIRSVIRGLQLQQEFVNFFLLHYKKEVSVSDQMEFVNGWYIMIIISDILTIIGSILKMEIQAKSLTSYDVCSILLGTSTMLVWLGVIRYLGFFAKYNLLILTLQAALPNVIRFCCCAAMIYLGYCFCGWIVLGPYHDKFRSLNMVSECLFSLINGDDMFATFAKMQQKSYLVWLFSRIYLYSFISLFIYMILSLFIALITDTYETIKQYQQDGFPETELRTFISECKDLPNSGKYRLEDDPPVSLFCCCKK

EC50 (Hexokinase HKDC1): 9.1 µM (active) | EC50 (Hexokinase-1): 11.8 µM (active)
SMILES: CSc1nc(N)nc2c1ncn2CC(=O)N[C@H](C)c1cccc2ccccc12

IC50 [1]: > 200 µM (inactive) | IC50 [2]: > 200 µM (inactive)
SMILES: CC(C(=O)O)N1Cc2ccccc2C1=O (centres undefined)

IC50 (NS3): 5.35 µM (active) | IC50 [3]: 1.72 µM (active) | EC50 [4]: 84.7 µM (active) | EC50 [5]: 59 µM (active) | EC50 [6]: 91.3 µM (active) | IC50 [7]: > 123 µM (inactive) | IC50 [8]: > 123 µM (inactive)
SMILES: O=C1/C(=C/C=C/c2ccco2)SC(=S)N1c1ccc(O)cc1

IC50 (Cannabinoid receptor 2 [9]): > 32 µM (inactive) | EC50 (Cannabinoid receptor 2 [10]): > 32 µM (inactive) | EC50 [11]: 0.633 µM (active) | IC50 (Cannabinoid receptor 1 [12]): > 32 µM (inactive)
SMILES: CCCN(CCC)Cc1c(C(=O)NN=Cc2c[nH]c3ccccc23)nnn1-c1nonc1N

EC50 (Ion channel NompC): > 29.9 µM (inactive) | EC50 (Mucolipin-3): > 29.9 µM (not active) | IC50 [13]: 1.32 µM (active)
SMILES: CC(C)(C)S(=O)(=O)/C(C#N)=N/Nc1ccc(Cl)cc1

EC50 [14]: 52.9 µM (inactive) | EC50 [15]: 7.68 µM (active)
SMILES: NC(=S)c1cc2ccc(O)cc2oc1=O

SMILES: CCNC(=S)N/N=C/c1cc(Br)cc(Br)c1OC
Absolute IC50 (CHOP) [16]: 10 µM

IC50 (Coagulation factor XII): > 50 µM (inactive)
SMILES: Cc1cccc(C)c1OCC(=O)N/N=C/c1cc2c(cc1[N+](=O)[O-])OCO2

IC50 (Cannabinoid receptor 2 [9]): > 32 µM (inactive) | EC50 [17]: > 32 µM (inactive) | EC50 (Cannabinoid receptor 2 [10]): > 32 µM (inactive) | EC50 [18]: > 32 µM (inactive) | IC50 (Cannabinoid receptor 1 [19]): > 32 µM (inactive) | EC50 (Cannabinoid receptor 1 [20]): > 32 µM (inactive) | IC50 [21]: > 32 µM (inactive)
SMILES: O=C(Nc1cccc(S(=O)(=O)N2CCOCC2)c1)c1cc2c(s1)CCCC2
